Results from ChEMBL document CHEMBL3046813, “Novel tetranortriterpenoid derivatives from Munronia henryi” (2003).

Columns and labels:
Pieris brassicae [1] = experiment: Antifeedant activity against Pieris brassicae third-instar larvae reared on compound pre-treated Brassica oleracea L. leaf disks assessed as insect mortality at 1000 ppm measured after 6 days by conventional leaf disk method; assay type: functional; details: foliar
Pieris brassicae [2] = experiment: Antifeedant activity against Pieris brassicae third-instar larvae reared on compound pre-treated Brassica oleracea L. leaf disks assessed antifeeding rate at 1000 ppm measured after 48 hr by conventional leaf disk method; assay type: functional

`C/C=C(\C)C(=O)O[C@H]1C[C@@H](OC(C)=O)[C@@]2(C(=O)OC)CO[C@H]3[C@@H](O)[C@@](C)([C@]45O[C@@]4(C)[C@@H]4C[C@H]5O[C@@H]5OC=C[C@@]54O)[C@H]4[C@]1(CO[C@]4(O)C(=O)OC)[C@@H]32` [AZADIRACHTIN A] showed a mortality at 1000 ppm (Pieris brassicae [1]) of 100% and an AFI (Pieris brassicae [2]) of 99.5%.
Molecule `C=C1[C@@H]2[C@@H](OC(=O)C=C[C@@]2(C)[C@H]2CC(=O)OC2(C)C)[C@H](OC(C)=O)[C@@]2(C)[C@H](C3=CC(O)OC3=O)C[C@H]3O[C@]132` (some centres undefined) [MUNRONIN A] has a mortality at 1000 ppm (Pieris brassicae [1]) of 20% and an AFI (Pieris brassicae [2]) of 0%.
`C=C1[C@@H]2[C@@H](OC(=O)C=C[C@@]2(C)[C@H]2CC(=O)OC2(C)C)[C@H](OC(C)=O)[C@@]2(C)[C@H](C3=CC(=O)OC3O)C[C@H]3O[C@]132` (some centres undefined) [MUNRONIN B] gave a mortality at 1000 ppm (Pieris brassicae [1]) of 10% and an AFI (Pieris brassicae [2]) of 20.9%.
`C=C1[C@@H]2[C@@H](OC(=O)C=C[C@@]2(C)[C@H]2CC(=O)OC2(C)C)[C@H](OC(C)=O)[C@@]2(C)[C@H](C3=CCOC3=O)C[C@H]3O[C@]132` [MUNRONIN C] showed a mortality at 1000 ppm (Pieris brassicae [1]) of 10% and an AFI (Pieris brassicae [2]) of 31%.
`C=C1[C@@H]2[C@@H](OC(=O)C=C[C@@]2(C)[C@H]2CC(=O)OC2(C)C)[C@H](OC(C)=O)[C@@]2(C)[C@H](C3=CCNC3=O)C[C@H]3O[C@]132` [MUNRONIN D] showed a mortality at 1000 ppm (Pieris brassicae [1]) of 10% and an AFI (Pieris brassicae [2]) of 28%.
`C#C[C@@H]1C[C@H]2O[C@]23C(=C)[C@@H]2[C@@H](OC(=O)C=C[C@@]2(C)[C@H]2CC(=O)OC2(C)C)[C@H](OC(C)=O)[C@@]13C` [MUNRONIN E] showed a mortality at 1000 ppm (Pieris brassicae [1]) of 10% and an AFI (Pieris brassicae [2]) of 37.1%.
`C=C1[C@@H]2[C@@H](OC(=O)C=C[C@@]2(C)[C@H]2CC(=O)OC2(C)C)[C@H](OC(C)=O)[C@@]2(C)[C@H](C(=O)O)C[C@H]3O[C@]132` [MUNRONIN F] gave a mortality at 1000 ppm (Pieris brassicae [1]) of 0% and an AFI (Pieris brassicae [2]) of 0%.
